# Measurements published in patent US8586608B2, “Quinazoline derivatives and pharmaceutical compositions containing them” (Boehringer Ingelheim Pharma GmbH & Co. KG, priority 2000, dated 2013).
# Target: T1, human EGF-receptor kinase (Homo sapiens, UniProt P00533)
# T1 construct: GST; made in house; host or cells: Sf9 insect cells (baculovirus)
# Assay: Inhibition of human EGF-receptor kinase (ELISA, bio-pEY substrate)
# Type: biochemical
# Conditions: cytoplasmic tyrosine kinase domain (Met664-Ala1186) as GST fusion protein; substrate pEY (4:1)/bio-pEY; 30 minutes at ambient temperature
# Description: To do this, the protein was expressed in Sf9 insect cells as a GST fusion protein using the Baculovirus expression system.
# The enzyme activity was measured in the presence or absence of the test compounds in serial dilutions. The polymer pEY (4:1) produced by SIGMA was used as the substrate. Biotinylated pEY (bio-pEY) was added as the tracer substrate. Every 100 μl of reaction solution contained 10 μl of the inhibitor in 50% DMSO, 20 μl of the substrate solution (200 mM HEPES pH 7.4, 50 mM magnesium acetate, 2.5 mg/ml poly(EY), 5 μg/ml bio-pEY) and 20 μl of enzyme preparation. The enzyme reaction was started by the addition of 50 μl of a 100 μM ATP solution in 10 mM magnesium chloride. The dilution of the enzyme preparation was adjusted so that the incorporation of phosphate into the bio-pEY was linear in terms of time and quantity of enzyme. The enzyme preparation was diluted in 20 mM HEPES pH 7.4, 1 mM EDTA, 130 mM common salt, 0.05% Triton X-100, 1 mM DTT and 10% glycerol.
# The enzyme assays were carried out at ambient temperature over a period of 30 minutes and were ended by the addition of 50 μl of a stopping solution (250 mM EDTA in 20 mM HEPES pH 7.4). 100 μl were placed on a streptavidin-coated microtiter plate and incubated for 60 minutes at ambient temperature. Then the plate was washed with 200 μl of a washing solution (50 mM Tris, 0.05% Tween 20). After the addition of 100 μl of a HRPO-labelled anti-PY antibody (PY20H Anti-PTyr:HRP produced by Transduction Laboratories, 250 ng/ml), it was incubated for 60 minutes. Then the microtiter plate was washed three times with 200 μl of washing solution. The samples were then combined with 100 μl of a TMB-peroxidase solution (A:B=1:1, Kirkegaard Perry Laboratories). After 10 minutes, the reaction was stopped. The extinction was measured at OD450nm with an ELISA reader. All data points were measured three times.
# The data were matched by means of an iterative calculation using an analytical program for sigmoidal curves (Graph Pad Prism Version 3.0) with variable Hill pitch.
# T1 sequence (P00533 688-1210): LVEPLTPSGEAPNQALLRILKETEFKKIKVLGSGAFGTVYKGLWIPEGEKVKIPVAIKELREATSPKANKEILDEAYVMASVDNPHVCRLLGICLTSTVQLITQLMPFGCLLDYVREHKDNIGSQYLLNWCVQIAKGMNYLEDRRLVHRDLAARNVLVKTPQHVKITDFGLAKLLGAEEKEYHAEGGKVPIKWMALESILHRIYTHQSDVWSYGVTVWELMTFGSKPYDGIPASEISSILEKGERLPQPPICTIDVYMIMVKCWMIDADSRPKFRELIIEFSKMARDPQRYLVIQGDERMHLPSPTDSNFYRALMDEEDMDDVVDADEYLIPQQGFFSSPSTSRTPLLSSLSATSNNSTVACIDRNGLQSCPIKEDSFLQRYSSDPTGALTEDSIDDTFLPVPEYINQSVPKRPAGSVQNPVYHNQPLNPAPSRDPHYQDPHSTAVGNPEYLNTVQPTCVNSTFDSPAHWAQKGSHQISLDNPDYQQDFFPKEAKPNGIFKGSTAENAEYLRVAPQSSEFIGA
row,IC50,Structure (SMILES)
1,0.4 nM,"CC(C)N(C)CC=CC(=O)Nc1cc2c(Nc3ccc(F)c(Cl)c3)ncnc2cc1O[C@H]1CCOC1 [1 (34), 4-[(3-chloro-4-fluorophenyl)amino]-6-{[4-(N-isopropyl-N-methylamino)-1-oxo-2-buten-1-yl]amino}-7-[(s)-(tetrahydrofuran-3-yl)oxy]quinazoline]"
2,4 nM,"COCCN(CC=CC(=O)Nc1cc2c(N[C@H](C)c3ccccc3)ncnc2cc1OCC1CC1)CCOC [1 (3), 4-[(R)-(1-phenylethyl)amino]-6-{[4-(N,N-bis(2-methoxyethyl)amino)-1-oxo-2-buten-1-yl]amino}-7-cyclopropylmethoxyquinazoline]"
3,0.3 nM,"CN(C)CC=CC(=O)Nc1cc2c(Nc3ccc(F)c(Cl)c3)ncnc2cc1OC[C@@H]1CCCO1 [1 (32), 4-[(3-chloro-4-fluorophenyl)amino]-6-{[4-(N,N-dimethylamino)-1-oxo-2-buten-1-yl]amino}-7-[(s)-(tetrahydrofuran-2-yl)methoxy]quinazoline]"
4,1 nM,"CN(CC=CC(=O)Nc1cc2c(Nc3ccc(F)c(Cl)c3)ncnc2cc1OC1CCCC1)C1CC1 [1 (22), 4-[(3-chloro-4-fluorophenyl)amino]-6-{[4-(N-cyclopropyl-N-methylamino)-1-oxo-2-buten-1-yl]amino}-7-cyclopentyloxyquinazoline]"
5,0.5 nM,"CCN(C)CC=CC(=O)Nc1cc2c(Nc3ccc(F)c(Cl)c3)ncnc2cc1O[C@H]1CCOC1 [1 (33), 4-[(3-chloro-4-fluorophenyl)amino]-6-{[4-(N-ethyl-N-methylamino)-1-oxo-2-buten-1-yl]amino}-7-[(s)-(tetrahydrofuran-3-yl)oxy]quinazoline]"
6,3 nM,"COCCN(C)CC=CC(=O)Nc1cc2c(N[C@H](C)c3ccccc3)ncnc2cc1OCC1CC1 [1 (5), 4-[(R)-(1-phenylethyl)amino]-6-({4-[N-(2-methoxyethyl)-N-methylamino]-1-oxo-2-buten-1-yl}amino)-7-cyclopropylmethoxyquinazoline]"
7,0.6 nM,"CN(C)CC=CC(=O)Nc1cc2c(Nc3ccc(F)c(Cl)c3)ncnc2cc1OC1CCCC1 [1 (2), 4-[(3-chloro-4-fluorophenyl)amino]-6-{[4-(N,N-dimethylamino)-1-oxo-2-buten-1-yl]amino}-7-cyclopentyloxyquinazoline]"

row,Structure (SMILES),IC50
1,"COCCN(C)CC=CC(=O)Nc1cc2c(Nc3ccc(F)c(Cl)c3)ncnc2cc1OCC1CC1 [Example 1, [(3-chloro-4-fluorophenyl)amino]-6-({4-[N-(2-methoxyethyl)-N-methylamino]-1-oxo-2-buten-1-yl}amino)-7-cyclopropylmethoxyquinazoline]",0.7 nM

# System: not given
# Assay: not given
# Conditions: not given
row,melting point,Structure (SMILES)
1,140 °C,"CN(CC=CC(=O)Nc1cc2c(Nc3ccc(F)c(Cl)c3)ncnc2cc1OC1CCCC1)C1CC1 [1 (22), 4-[(3-chloro-4-fluorophenyl)amino]-6-{[4-(N-cyclopropyl-N-methylamino)-1-oxo-2-buten-1-yl]amino}-7-cyclopentyloxyquinazoline]"
2,100 to 102 °C,"COCCN(CC=CC(=O)Nc1cc2c(Nc3ccc(F)c(Cl)c3)ncnc2cc1OCC1CCOCC1)CCOC [Example 1 (30), 4-[(3-chloro-4-fluorophenyl)amino]-6-({4-[N,N-bis(2-methoxyethyl)amino]-1-oxo-2-buten-1-yl}amino)-7-[(tetrahydropyran-4-yl)methoxy]quinazoline]"
3,117 to 121 °C,"CN(CC=CC(=O)Nc1cc2c(Nc3ccc(F)c(Cl)c3)ncnc2cc1OC1CCCC1)C[C@H]1CCCO1 [Example 1 (26), 4-[(3-chloro-4-fluorophenyl)amino]-6-[(4-{(R)—N-[(tetrahydrofuran-2-yl)methyl]-N-methylamino}-1-oxo-2-buten-1-yl)amino]-7-cyclopentyloxyquinazoline]"
4,110 to 112 °C,"CN(C)CC=CC(=O)Nc1cc2c(Nc3ccc(F)c(Cl)c3)ncnc2cc1OC[C@H]1CCCO1 [Example 1 (31), 4-[(3-chloro-4-fluorophenyl)amino]-6-{[4-(N,N-dimethylamino)-1-oxo-2-buten-1-yl]amino}-7-[(R)-(tetrahydrofuran-2-yl)methoxy]quinazoline]"
5,154 to 157 °C,"CCN(C)CC=CC(=O)Nc1cc2c(Nc3ccc(F)c(Cl)c3)ncnc2cc1O[C@H]1CCOC1 [1 (33), 4-[(3-chloro-4-fluorophenyl)amino]-6-{[4-(N-ethyl-N-methylamino)-1-oxo-2-buten-1-yl]amino}-7-[(s)-(tetrahydrofuran-3-yl)oxy]quinazoline]"
6,141 °C,"CN(CC=CC(=O)Nc1cc2c(Nc3ccc(F)c(Cl)c3)ncnc2cc1OCC1CC1)CC1CCOCC1 [Example 1 (24), 4-[(3-chloro-4-fluorophenyl)amino]-6-[(4-{N-[(tetrahydropyran-4-yl)methyl]-N-methylamino}-1-oxo-2-buten-1-yl)amino]-7-cyclopropylmethoxyquinazoline]"
7,149 to 153 °C,"CN(CC=CC(=O)Nc1cc2c(Nc3ccc(F)c(Cl)c3)ncnc2cc1OCC1CC1)C[C@H]1CCCO1 [Example 1 (19), 4-[(3-chloro-4-fluorophenyl)amino]-6-[(4-{(R)—N-[(tetrahydrofuran-2-yl)methyl]-N-methylamino}-1-oxo-2-buten-1-yl)amino]-7-cyclopropylmethoxyquinazoline]"
8,184 to 185 °C,"O=C(C=CCN1CCOCC1)Nc1cc2c(Nc3ccc(F)c(Cl)c3)ncnc2cc1O[C@H]1CCOC1 [Example 1 (35), 4-[(3-chloro-4-fluorophenyl)amino]-6-{[4-(morpholin-4-yl)-1-oxo-2-buten-1-yl]amino}-7-[(s)-(tetrahydrofuran-3-yl)oxy]quinazoline]"
9,174 °C,"O=C(C=CCN1CCOCC1)Nc1cc2c(Nc3ccc(F)c(Cl)c3)ncnc2cc1OCC1CCOCC1 [Example 1 (29), 4-[(3-chloro-4-fluorophenyl)amino]-6-{[4-(morpholin-4-yl)-1-oxo-2-buten-1-yl]amino}-7-[(tetrahydropyran-4-yl)methoxy]quinazoline]"
